Biological target: T1, RORα (Homo sapiens, UniProt P35398)
T1 construct: expressed in transfected cells; host or cells: CV-1 cells (ATCC CCL-70)
T1 sequence (P35398 1-523): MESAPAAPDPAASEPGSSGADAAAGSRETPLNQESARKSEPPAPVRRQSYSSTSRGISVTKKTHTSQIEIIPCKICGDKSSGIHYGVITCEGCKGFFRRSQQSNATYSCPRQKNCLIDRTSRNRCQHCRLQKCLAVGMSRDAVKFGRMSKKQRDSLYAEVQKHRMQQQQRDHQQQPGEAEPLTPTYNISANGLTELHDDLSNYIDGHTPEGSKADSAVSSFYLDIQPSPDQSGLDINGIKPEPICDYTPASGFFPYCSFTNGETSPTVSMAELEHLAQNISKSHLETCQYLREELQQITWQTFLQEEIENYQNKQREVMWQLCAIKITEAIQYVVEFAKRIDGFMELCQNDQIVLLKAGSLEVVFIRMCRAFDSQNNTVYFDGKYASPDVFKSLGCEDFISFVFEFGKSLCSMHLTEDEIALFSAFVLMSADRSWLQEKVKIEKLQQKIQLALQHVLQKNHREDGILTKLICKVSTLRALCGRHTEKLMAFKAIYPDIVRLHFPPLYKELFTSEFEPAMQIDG
Assay: Transcriptional activity of RORα, RORE-tk-Luc reporter in CV-1 cells (Experimental Example 1)
Assay type: cell-based
Settings: JC1 compounds 100 μM, 24 hours; luciferase activity standardized by β-gal; versus control treated only with solvent
Description: CV-1 cells (CCL-70) were purchased from American Type Culture Collection (ATCC). The CV-1 cells (4×10^4 cells/well) were seeded on a 24-well culture plate and cultured overnight in a Dulbecco's Modified Eagle's Medium (DMEM) containing 10% fetal bovine serum (FBS). The CV-1 cells were maintained at 37° C. in a humidification thermostat containing 5% CO2 and 95% air. After culturing, the cells were transformed with RORE-tk-Luc reporter plasmid (100 ng) and ROR expression vector (5 ng) using calcium phosphate. […]

SMILES	Fold Activation
CNC(=S)NCc1ccccc1Br [Compound 1, 1-(2-bromo-benzyl)-3-methyl-thiourea]	3.4
CNC(=S)NCc1ccc(Br)cc1 [Compound 2, 1-(4-bromo-benzyl)-3-methyl-thiourea]	1.4
CNC(=S)NCc1ccc(Cl)cc1 [Compound 3, 1-(4-chloro-benzyl)-3-methyl-thiourea]	2.6
CNC(=S)NCc1ccc(OC)cc1 [Compound 4, 1-(4-methoxy-benzyl)-3-methyl-thiourea]	3.4
CNC(=S)NCc1ccc(OC)cc1OC [Compound 5, 1-(2,4-dimethoxy-benzyl)-3-methyl-thiourea]	1.1
CNC(=S)NCc1cccc(C)c1 [Compound 6, 1-(3-methyl-benzyl)-3-methyl-thiourea]	1.1
CNC(=S)NCc1ccccc1C [Compound 7, 1-(2-methyl-benzyl)-3-methyl-thiourea]	0.7
CNC(=S)NCc1ccc2c(c1)OCO2 [Compound 8, 1-(benzo[1,3]dioxyl-5-methyl)-3-methyl-thiourea]	1.7
CNC(=S)NCc1ccc(O)c(OC)c1 [Compound 9, 1-(4-hydroxy-3-methoxy-benzyl)-3-methyl-thiourea]	1.4
CNC(=S)NCc1ccc(N(C)C)cc1 [Compound 10, 1-(4-dimethylamino-benzyl)-3-methyl-thiourea]	1.3
CNC(=S)NCc1ccc(C(F)(F)F)cc1 [Compound 11, 1-(4-trifluoromethyl-benzyl)-3-methyl-thiourea]	2.3
CNC(=S)NCc1ccc([N+](=O)[O-])cc1 [Compound 12, 1-(4-nitro-benzyl)-3-methyl-thiourea]	1.6
CNC(=S)NCc1ccc(C(C)(C)C)cc1 [Compound 13, 1-(4-t-butyl-benzyl)-3-methyl-thiourea]	0.9
CNC(=S)NCc1ccc(C)cc1 [Compound 14, 1-(4-methyl-benzyl)-3-methyl-thiourea]	3.9
CNC(=S)NCc1cccc(OC)c1OC [Compound 15, 1-(2,3-dimethoxy-benzyl)-3-methyl-thiourea]	1.5
CCOc1ccccc1CNC(=S)NC [Compound 16, 1-(2-ethoxy-benzyl)-3-methyl-thiourea]	1.4
CNC(=S)NCc1cccc([N+](=O)[O-])c1 [Compound 17, 1-(3-nitro-benzyl)-3-methyl-thiourea]	0.9
CNC(=S)NCc1ccccc1[N+](=O)[O-] [Compound 18, 1-(2-nitro-benzyl)-3-methyl-thiourea]	2.1
CNC(=S)NCc1cc(OC)c(OC)c(OC)c1 [Compound 19, 1-(3,4,5-trimethoxy-benzyl)-3-methyl-thiourea]	2.2
CNC(=S)NCc1cc(OC)cc(OC)c1 [Compound 20, 1-(3,5-dimethoxy-benzyl)-3-methyl-thiourea]	1.0
CNC(=S)NCc1ccc(Cl)cc1Cl [Compound 21, 1-(2,4-dichloro-benzyl)-3-methyl-thiourea]	0.6
CNC(=S)NCc1ccc(O)c(O)c1 [Compound 22, 1-(3,4-dihydroxy-benzyl)-3-methyl-thiourea]	0.6
CNC(=S)NCc1ccc(OC)cc1OC [Compound 23, 1-(2,4-dimethoxy-benzyl)-3-methyl-thiourea]	2.9

SMILES	Fold Activation
CNC(=S)NCc1ccc(-c2ccccc2)cc1 [Compound 24, 1-(4-phenyl-benzyl)-3-methyl-thiourea]	0.2
CNC(=S)NCc1ccc(OC)c(O)c1 [Compound 25, 1-(3-hydroxy-4-methoxy-benzyl)-3-methyl-thiourea]	1.9
CNC(=S)NCc1ccc(Cl)c(Cl)c1 [Compound 27, 1-(3,4-dichloro-benzyl)-3-methyl-thiourea]	1.0
CNC(=S)NCc1cccc(Cl)c1 [Compound 28, 1-(3-chloro-benzyl)-3-methyl-thiourea]	0.7
CNC(=S)NCc1cccc(F)c1 [Compound 29, 1-(3-fluoro-benzyl)-3-methyl-thiourea]	1.1
CNC(=S)NCc1ccc(F)cc1 [Compound 30, 1-(4-fluoro-benzyl)-3-methyl-thiourea]	2.5
CNC(=S)NCc1ccc(F)c(F)c1 [Compound 31, 1-(3,4-difluoro-benzyl)-3-methyl-thiourea]	0.8
CNC(=S)NCc1ccc(F)cc1F [Compound 32, 1-(2,4-difluoro-benzyl)-3-methyl-thiourea]	0.9
CNC(=S)NCc1cccc(Cl)c1Cl [Compound 33, 1-(2,3-dichloro-benzyl)-3-methyl-thiourea]	0.7
CNC(=S)NCc1ccccc1Cl [Compound 34, 1-(2-chloro-benzyl)-3-methyl-thiourea]	0.8
CNC(=S)N[C@H](C)c1ccc(OC)cc1 [Compound 35, R-(+)-1-[1-(4-methoxy-phenyl)-ethyl]-3-methyl-thiourea]	0.7
CNC(=S)N[C@@H](C)c1ccc(OC)cc1 [Compound 36, S-(−)-1-[1-(4-methoxy-phenyl)-ethyl]-3-methyl-thiourea]	0.6
C=CCOc1ccccc1CNC(=S)NC [Compound 39, 1-(2-allyloxy-benzyl)-3-methyl-thiourea]	1.8
CNC(=S)NCc1ccc(OC)c(OCc2ccccc2)c1 [Compound 41, 1-(3-benzyloxy-4-methoxy-benzyl)-3-methyl-thiourea]	2.5
CNC(=S)NCc1ccc2ccccc2c1 [Compound 43, 1-methyl-3-naphthalene-2-methyl-thiourea]	0.7
CCOc1cc(-c2ccccc2)ccc1CNC(=S)NC [Compound 44, 1-(3-ethoxy-biphenyl-4-methyl)-3-methyl-thiourea]	1.2
CCOc1cc(-c2ccc(C(C)(C)C)cc2)ccc1CNC(N)=S [Compound 45, (4′-tert-butyl-3-ethoxy-biphenyl-4-methyl)-thiourea]	1.0
CCOc1cc(C=Cc2ccccc2)ccc1CNC(=S)NC [Compound 47, 1-(2-ethoxy-4-styryl-benzyl)-3-methyl-thiourea]	1.2
CCOc1cc(-c2ccc(C(F)(F)F)cc2)ccc1CNC(=S)NC [Compound 48, 1-(3-ethoxy-4′-trifluoromethyl-biphenyl-4-methyl)-3-methyl-thiourea]	1.0
CNC(=S)NCc1ccccc1Oc1ccccc1 [Compound 51, 1-methyl-3-(2-phenoxy-benzyl)-thiourea]	1.3
CNC(=S)NCc1ccc(Oc2ccc(F)cc2)cc1 [Compound 52, 1-[4-(4-fluoro-phenoxy)-benzyl]-3-methyl-thiourea]	1.5
CNC(=S)NCc1ccc(Oc2ccc(OC)cc2)cc1 [Compound 53, 1-[4-(4-methoxy-phenoxy)-benzyl]-3-methyl-thiourea]	2.1

From patent US10407388B2, “Thiourea derivatives as activators of RORα and pharmaceutical composition containing same” (SEOUL NATIONAL UNIVERSITY R & DB FOUNDATION, priority 2011, dated 2019)
